Data: PMC4569415, “Pro-Oxidant Activity of Amine-Pyridine-Based Iron Complexes Efficiently Kills Cancer and Cancer Stem-Like Cells” (PLoS ONE, 2015)
Values joined by “and” are separate entries in the source; they are usually repeats but may differ in a detail not shown here. Equal values may be shown once.

Experiments:
[1] = test system: tumor (PC-3, Z-138 and JURKAT) cell lines; assay: MTT cytotoxicity assay, tumor cell selection; format: cell-based; conditions: Homo sapiens, range over PC-3, Z-138 and JURKAT, 48 h, read-out: IC50 values against tumor cells (range)
Procedure: (§1) The cytotoxic activity of the compounds was determined by MTT reduction assay as described. Compounds were diluted in Milli-Q water to obtain 1 mmol/L stock solutions. Appropriate aliquots of these solutions were diluted in the corresponding cell culture medium to obtain the final working concentrations. Aliquots of 5000 1BR3G cells, 6000 MCF-7, 6000 PC-3 cells, 10 000 CAPAN-1 cells, 4000 MCF 10A cells, 4000 HMLE cells or 4000 CCD-18Co cells were seeded in 96-well plates, 24 h prior to the treatments. Hematological cell lines were seeded at 400 000 cells/mL. Cells were treated with the corresponding compound at concentrations ranging from 0 to 100 μmol/L for 48 h. Three replicates for each compound were used. The IC50 was established for each compound by standard non-linear regression and curve fitting using GraphPad Prism (Graph Pad software Inc., La Jolla, CA, USA).

[2] = test system: supercoiled pUC18 plasmid DNA; assay: DNA cleavage by agarose gel electrophoresis; format: biochemical; conditions: 25 μM, 1 h, 37°C
Procedure: DNA cleavage was monitored by agarose gel electrophoresis. A stock solution of pUC18 DNA was freshly prepared in Milli-Q water at a concentration of […] (1512 μmol/L nucleotides; 756 μmol/L bp). Reactions were performed by mixing 0.5 μl of pUC18 with appropriate aliquots of the compounds and 1 μL of activating agent solution (35% wt/vol H2O2 in H2O). Cacodylate buffer (0.1 M, pH 6.0) was added to the mixture to give a final volume of 20 μl. The final concentration of pUC18 DNA was 37.8 μmol/L in nucleotides (18.9 μmol/L bp). Samples were incubated for 1 h at 37°C; reactions were quenched by adding 6 μL of a buffer solution consisting of bromophenol blue (0.25%), xylene cyanol (0.25%), and glycerol (30%). Subsequently, the samples were subjected to electrophoresis in 0.8% agarose gels in 0.5×TBE buffer (0.045 mol/L Tris, 0.045 mol/L boric acid, and 1 mmol/L EDTA) at 100 V for 1 h and 40 min. Gels were stained with ethidium bromide (10 mg/mL in TBE) for 15 min and visualized under UV transillumination. DNA bands were captured using the ProgRes CapturePro 2.7 system and the intensity of each band was quantified with the GelQuant version 2.7 software (DNR Bio-Imaging Systems, Jerusalem, Israel) using a correction factor of 1.31 to compensate for the reduced ethidium bromide uptake of supercoiled plasmid pUC18 DNA [47]. The proportion of different forms of plasmid DNA was established for each treatment. To test the involvement of ROS in strand scission and possible complex–DNA interaction sites, various ROS scavengers and groove binders were added to the reaction mixtures. The scavengers used were Tiron (10 mmol/L), sodium azide (0.4 mol/L), and dimethyl sulfoxide (DMSO, 3 μL). The groove binders used were methyl green (20 mmol/L) and Hoechst (40 μmol/L).

[3] = test system: CS-like HMLER-shEcad cells; assay: MTT cytotoxicity assay in cancer stem-like cells; format: cell-based, human; conditions: Homo sapiens, 48 h
Procedure: as §1
Fig 2 Cell viability assay. (A) Cytotoxic activity of compounds 1, 2, and 5 against cancer cells. The indicated cell lines were treated for 48 h with ligands (10 μmol/L) and cell viability was measured with the MTT assay. Data represents the percentage of viable cells relative to untreated cells (control). (B) Cytotoxicity of doxorubicin and compounds 1, 2 and 5 against CS-like cells. CS-like HMLER-shEcad cells and non-CS-like HMLER isogenic parental cells were treated for 48 h with graded concentrations of doxorubicin, 1, 2 and 5. Cell viability was measured with the MTT assay. For each treatment, the percentage of viable cells relative to untreated cells is indicated. Data represents the mean±SD of 3 independent experiments performed in triplicate.

Hemolytic assay = format: cell-based; conditions: human, erythrocyte suspension of fresh human blood (5% vol/vol)
Procedure: The hemolytic activity of the compounds at 100 μmol/L was evaluated by determining hemoglobin release from erythrocyte suspensions of fresh human blood (5% vol/vol) as described.

MCF-7 cells [4] = assay: Cellular DNA damage, p-H2A.X flow cytometry; format: cell-based, human; conditions: MCF-7, 10 μmol/L, time-dependent
Procedure: DNA damage was assessed by monitoring the intensity of p-H2A.X fluorescence using flow cytometry. Briefly, cells were collected with trypsin, washed in PBS and fixed in 3.7% formaldehyde for 15 min on ice. Cells were then permeabilised with 0.2% v/v Triton-X100 for 10 min and incubated with 1:400 rabbit anti-p-(S139)-H2A.X antibody (Cell Signaling Technology, Danvers, MA) for 30 min on ice. After washing in 0.1% Triton-X100 in PBS, cells were incubated with 1:400 anti-rabbit Alexa 555-conjugated antibody (Jackson ImmunoResearch, Newmarket, UK) for 20 min on ice. Analysis was carried out in a FACScan flow cytometer with Flowing software.

MCF-7 cells [5] = assay: Colony formation (clonogenic) assay; format: cell-based, human; conditions: 10 μmol/L
Procedure: MCF-7 cells were seeded in 12-well plates. […] Subsequently, cells were washed with PBS, collected with trypsin and plated at low density (3000 cells in a […]). Cells were allowed to divide and form colonies for 7–10 days; after which, colonies were fixed and stained with 2% methylene blue in 50% ethanol. The number of colonies in each plate was determined using the Alpha Innotech Imaging system (Alpha Innotech, San Leandro, CA).

CAPAN-1 cells = assay: ROS measurement with H2DCFDA; format: cell-based, human; conditions: for fold increase of ROS levels: 5 h; for reduction of compound-induced ROS levels by NAC: CAPAN-1, NAC 5 mmol/L; for H2DCFDA fluorescence (ROS): 5.8 at 0 μmol/L
Procedure: (§2) Cellular ROS content was determined using the 2′,7′-dichlorodihydrofluorescein diacetate probe (H2DCFDA). Cells were seeded in 24-well plates (50 000 cells/well) in phenol red-free DMEM 24 h prior to treatments. Cells were treated with different concentrations of compound 1, 2 and 5 (2.5, 5 or 10 μmol/L) or vehicle alone as a control, for 5 or 24 hours at 37°C. In some experiments, cells were co-treated with the compounds plus 5 mmol/L NAC. After treatments, cells were washed with PBS and incubated with 1 μmol/L H2DCF-DA in PBS for 30 minutes in the dark. After washing, cells were collected with trypsin and analyzed by flow cytometry using a FACS-Calibur flow cytometer (Becton-Dickinson®, Immunofluorometry Systems, Mountain View, CA, USA). The geometric mean fluorescence intensity of 10 000 cells was established using CellQuestTM software (Becton Dickinson). The fluorescence fold-increase versus untreated cells was determined for each treatment.

JURKAT cells = assay: ROS measurement with H2DCFDA; format: cell-based, human; conditions: 10 μmol/L, 24 h
Procedure: as §2

Question: For CN(C)c1ccnc(CN2CCC[C@H]2[C@@H]2CCCN2Cc2cc(N(C)C)ccn2)c1 [Compound 2], which IC50 [1] is on record?
Answer: 3.8 to 7.2 µM

Question: And the “Proportion of plasmid DNA Form I (supercoiled)” value (“Proportion … (supercoiled)” below) ([2]; + H2O2)?
Answer: 56.8%

Question: And the “Proportion of plasmid DNA Form II (open)” value ([2]; + H2O2)?
Answer: 43.2%

Question: And the “Proportion … (supercoiled)” value ([2]; absence of H2O2)?
Answer: 91.3%

Question: What about the “Proportion of plasmid DNA Form II (open)” value ([2]; absence of H2O2) of the same compound?
Answer: 8.7%

Question: What about the IC50 [3] of the same compound?
Answer: 6.8 ± 0.1 µM

Question: What about the hemolysis at 100 µM (Hemolytic assay) of the same compound?
Answer: 0%

Question: What about the “increase in phosphorylated H2A.X” value (MCF-7 cells [4]) of the same compound?
Answer: three fold

Question: What about the “reduction of colony number vs control” value (MCF-7 cells [5]; 3 h exposure) of the same compound?
Answer: 39%

Question: What about the “reduction of colony number vs control” value (MCF-7 cells [5]; 24 h exposure) of the same compound?
Answer: almost abolished

Question: What about the “fold increase of ROS levels” value (CAPAN-1 cells; CAPAN-1, 2.5 μmol/L) of the same compound?
Answer: 1.39 fold

Question: And the “fold increase of ROS levels” value (CAPAN-1 cells; CAPAN-1, 5 μmol/L)?
Answer: 1.66 fold

Question: What about the “fold increase of ROS levels” value (CAPAN-1 cells; CAPAN-1, 10 μmol/L) of the same compound?
Answer: 2.53 fold

Question: What about the “reduction of compound-induced ROS levels by NAC” value (CAPAN-1 cells) of the same compound?
Answer: 26.8%

Question: What about the “ROS induction with FeCl2 co-incubation” value (CAPAN-1 cells; CAPAN-1, compound 10 μmol/L 24 h, FeCl2 100 μmol/L co-incubation) of the same compound?
Answer: abolished ROS induction

Question: What about the “increase in ROS levels in FeCl2-pretreated vs non-pretreated cells” value (CAPAN-1 cells; CAPAN-1, compound 10 μmol/L 24 h, FeCl2 100 μmol/L pre-incubation) of the same compound?
Answer: 1.5 fold

Question: And the “ROS levels versus control cells” value (JURKAT cells)?
Answer: 1.94 folds

Question: With c1ccc(CN2CCC[C@H]2[C@@H]2CCCN2Cc2ccccn2)nc1 [Compound 1] as the compound, how does the IC50 [1] read?
Answer: 4.8 to 15.1 µM

Question: What about the “Proportion … (supercoiled)” value ([2]; + H2O2) of the same compound?
Answer: 52.8%

Question: What about the “Proportion of plasmid DNA Form II (open)” value ([2]; + H2O2) of the same compound?
Answer: 47.2%

Question: And the “Proportion … (supercoiled)” value ([2]; absence of H2O2)?
Answer: 84.3%

Question: What about the “Proportion of plasmid DNA Form II (open)” value ([2]; absence of H2O2) of the same compound?
Answer: 15.7%

Question: What about the IC50 [3] of the same compound?
Answer: 5.3 ± 0.7 µM

Question: And the hemolysis at 100 µM (Hemolytic assay)?
Answer: 0%

Question: What about the “increase in phosphorylated H2A.X” value (MCF-7 cells [4]) of the same compound?
Answer: three fold

Question: What about the “reduction of colony number vs control” value (MCF-7 cells [5]; 3 h exposure) of the same compound?
Answer: 0%

Question: And the “reduction of colony number vs control” value (MCF-7 cells [5]; 5 h exposure)?
Answer: 18.7%

Question: And the “reduction of colony number vs control” value (MCF-7 cells [5]; 12 h exposure)?
Answer: 40.5%

Question: And the “reduction of colony number vs control” value (MCF-7 cells [5]; 24 h exposure)?
Answer: 57% and 56.6%

Question: And the “fold increase of ROS levels” value (CAPAN-1 cells; CAPAN-1, 2.5 μmol/L)?
Answer: 1.73 fold

Question: What about the “H2DCFDA fluorescence (ROS)” value (CAPAN-1 cells; CAPAN-1, 2.5 μmol/L, 24 h) of the same compound?
Answer: 10.9

Question: And the “fold increase of ROS levels” value (CAPAN-1 cells; CAPAN-1, 5 μmol/L)?
Answer: 2.01 fold

Question: What about the “H2DCFDA fluorescence (ROS)” value (CAPAN-1 cells; CAPAN-1, 5 μmol/L, 24 h) of the same compound?
Answer: 11.79

Question: And the “fold increase of ROS levels” value (CAPAN-1 cells; CAPAN-1, 10 μmol/L)?
Answer: 2.61 fold

Question: What about the “H2DCFDA fluorescence (ROS)” value (CAPAN-1 cells; CAPAN-1, 10 μmol/L, 24 h) of the same compound?
Answer: 32.6

Question: And the “reduction of compound-induced ROS levels by NAC” value (CAPAN-1 cells)?
Answer: 31.1%

Question: With CN1CCN(Cc2ccccn2)CCN(Cc2ccccn2)CC1 [Compound 5] as the compound, how does the IC50 [1] read?
Answer: 2.9 to 7.7 µM

Question: And the “Proportion … (supercoiled)” value ([2]; + H2O2)?
Answer: 53.3%

Question: And the “Proportion of plasmid DNA Form II (open)” value ([2]; + H2O2)?
Answer: 46.7%

Question: What about the “Proportion … (supercoiled)” value ([2]; absence of H2O2) of the same compound?
Answer: 92.3%

Question: What about the “Proportion of plasmid DNA Form II (open)” value ([2]; absence of H2O2) of the same compound?
Answer: 7.7%

Question: What about the IC50 [3] of the same compound?
Answer: 8.6 ± 0.5 µM

Question: What about the hemolysis at 100 µM (Hemolytic assay) of the same compound?
Answer: 0%

Question: What about the “increase in phosphorylated H2A.X” value (MCF-7 cells [4]) of the same compound?
Answer: four fold

Question: And the “reduction of colony number vs control” value (MCF-7 cells [5]; 24 h exposure)?
Answer: 53%

Question: What about the “intracellular ROS levels vs untreated cells” value (CAPAN-1 cells; CAPAN-1, 10 μmol/L, 24 h) of the same compound?
Answer: 2.4 fold
